Reference: US20140066438A1, “DOPAMINE RECEPTOR D2 ANTAGONIST FOR PREVENTION AND TREATMENT OF FLAVIVIRUS INFECTION” (Academia Sinica, priority 2012, published 2014)

Columns and labels:
DENV-1 = test: Antiviral assay against DENV-1 (NS3 Western blot); details: HEK293T, MOI=0.1, 2 days
DENV-2 NGC-N strain = test: Animal study: DENV-2 challenge of Stat1-deficient mice; type: in vivo
Procedure: Stat1^−/− mice were challenged with 5×10^4 PFU/mouse of DENV-2 NGC-N strain. The protective effect of PCZ dimaleate (A) and PCZ dimethanesulfonate (Novamin Injection) (B) were tested with immediate and 6-h delay treatment. (A) The mice received phosphate buffered saline (PBS; vehicle control, n=10), 5 mg (n=8) or 1 mg (n=8) PCZ-dimaleate/kg body weight/i.p. at the time of infection (immediate treatment), or 5 mg PCZ-dimaleate/kg body weight/i.p. at 6 h post-infection (6-h delay treatment, n=8). Mice received follow-up treatment with PBS (vehicle control) or half the dose of PCZ-dimaleate orally every 12 h until day-10 post infection. […] The days with treatment are marked by arrows. Mice survival was checked daily and the data are presented as percentage of survival.
The mouse experiments were approved and performed in accordance with the guidelines of the Academia Sinica Institutional Animal Care and Utilization Committee. Groups of 5-week-old Stat1-deficient (SaT1^−/−) mice were challenged intraperitoneally (i.p.) with 5×10^4 plaque-forming units (PFU)/mouse of DENV-2 NGC-N strain and simultaneously injected with 30 μl PBS intracranially (i.c.) into the right hemisphere of the brain. To study the efficacy of PCZ-dimaleate administered mainly by an oral route, mice were divided into 4 groups for treatment: PBS (vehicle control); 5 or 1 mg of PCZ/kg body weight/i.p. at the time of infection (immediate treatment); or 5 mg of PCZ/kg body weight/i.p. at 6 h post-infection (6-h delay treatment). Thereafter, twice a day, mice received a half dose of the first treatment orally with PBS (vehicle control) or 2.5 or 0.5 mg of PCZ/kg body weight/oral/12 h up to day 10 post-infection. […] Thereafter, every 2 days, mice received PBS or the same dose of PCZ up to day 10 post-infection. The mice were checked daily for mortality.

DENV-2 = test: Cell-based antiviral assay against DENV-2 (IFA, immunoblotting of NS3, plaque-forming assay); design: species or system Dengue virus serotype 2 (PL046 strain)
Procedure: (A) PCZ cytotoxicity test. HEK293T cells were treated with solvent control or the indicated concentrations of PCZ for 24 h. AlamarBlue, XTT, and LDH assays were carried out to determine cell viability, cell proliferation, and cytotoxicity, respectively. Data are mean and standard deviation (SD) of 3 independent experiments. […] Representative immunofluorescence microscopy (400× magnification) of cells immunostained for DENV-2 NS3 (green) and DAPI for nuclei (blue). […] Plaque-forming assay of viral progeny production (plaque forming unit, PFU/ml) in culture supernatants of cells in panel C (D). Data are mean and SI) of 2 independent experiments. *P<0.05.
(A) PCZ cytotoxicity test. HEK293T cells were treated with solvent control or the indicated concentrations of PCZ (5, 10, 15, 20 and 25 μM). AlamarBlue, XTT and LDH assays were carried out to determine cell viability, cell proliferation, and cytotoxicity, respectively. […] (D) Plaque-forming assay of viral progeny production (plaque forming unit, PFU/ml): Data are mean and SD of two independent experiments. **P<0.01. […] BHK-21 cells (E) and N18 cells (F) infected with DENV-2 (MOI=0.1) were treated with or without PCZ for 2 days and 1 day, respectively.
HEK293T cells were infected with DENV-2 (MOI=0.1) with or without haloperidol for 1 day.
Monolayers of cells (HEK293T, BHK-21 and N18) in 6- or 12-well plates were infected with DENV-2 at the indicated multiplicity of infection (MOI). Virus was adsorbed for 2 h with the indicated concentrations of PCZ, then cells were washed thoroughly to remove unbound viruses and incubated for an additional 24 to 48 h with or without PCZ. The antiviral effect of PCZ was evaluated by immunofluorescence assay (IFA), immunoblotting and plaque-forming assay.
Cells were fixed with 4% PFA and permeabilized with 0.5% Triton X-100 in PBS.

[1] = tested on: Japanese encephalitis virus (JEV); test: Antiviral assay against JEV (NS3 Western blot); type: cell-based; details: BHK-21 cells, MOI=0.1, 2 days
[2] = target: mouse dopamine D2 receptor (mouse) (UniProt P61168)
[3] = tested on: clathrin-dependent endocytosis; details: cited from earlier work
[4] = 2 mg PCZ/kg body weight/2 days i.p., immediate treatment

Chain of mouse dopamine D2 receptor (mouse) (P61168 other isoform, or with tags, fused parts or gaps): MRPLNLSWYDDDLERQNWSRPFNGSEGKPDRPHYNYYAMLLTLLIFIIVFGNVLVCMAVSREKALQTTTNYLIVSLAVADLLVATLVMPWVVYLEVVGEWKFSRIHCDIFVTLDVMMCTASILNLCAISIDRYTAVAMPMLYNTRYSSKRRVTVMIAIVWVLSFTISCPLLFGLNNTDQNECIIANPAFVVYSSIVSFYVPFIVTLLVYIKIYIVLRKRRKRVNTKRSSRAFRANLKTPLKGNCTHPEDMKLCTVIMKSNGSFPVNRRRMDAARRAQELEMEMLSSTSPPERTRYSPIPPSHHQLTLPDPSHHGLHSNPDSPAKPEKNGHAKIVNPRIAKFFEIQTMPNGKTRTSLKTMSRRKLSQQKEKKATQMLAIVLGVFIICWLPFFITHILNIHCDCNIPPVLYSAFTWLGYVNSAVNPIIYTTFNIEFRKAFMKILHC

## prochlorperazine dimethanesulfonate [PCZ-Novamin]
DENV-1
  DENV-1 replication (NS3 Western blot): reduced DENV-1 replication
DENV-2 NGC-N strain; [4]
  DENV-2-induced lethality timing: slightly delayed
  overall survival: 20%
DENV-2 NGC-N strain; 4 mg PCZ/kg body weight/2 days i.p., immediate treatment
  protection against DENV-2 challenge after 10 days of infection: completely protected
DENV-2 NGC-N strain; 4 mg PCZ/kg/2 days i.p., immediate treatment
  overall survival: 40%
DENV-2 NGC-N strain; 4 mg kg body weight/2 days i.p., from 6 h post-infection
  overall survival and mortality timing: did not improve the overall survival but delayed the mortality
DENV-2 NGC-N strain; 8 mg PCZ/kg body weight/2 days i.p., from 6 h post-infection
  mice surviving the DENV-2 challenge: 40%
DENV-2 NGC-N strain; 8 mg PCZ/kg body weight/2 days i.p., immediate treatment
  protection against DENV-2 challenge after 10 days of infection: completely protected
DENV-2 NGC-N strain; 8 mg PCZ/kg/2 days i.p., immediate treatment
  state of mice after treatment stopped at day 10 post-infection: remained healthy
DENV-2; DENV-2-infected HEK293T cells, IFA and Western blot
  protein expression of viral NS3: dose-dependently reduced
DENV-2; HEK293T cells, calculated by a published method, read-out: half-maximal effective concentration (EC50) against DENV-2 infection
  EC50: 88.4 nM
DENV-2; HEK293T, DENV-2 MOI=1, 24 h
  viral progeny production by plaque-forming assay: significantly reduced viral progeny production

## CN1CCN(CCCN2c3ccccc3Sc3ccc(Cl)cc32)CC1 [PCZ-dimaleate, Prochlorperazine dimaleate]
DENV-2 NGC-N strain; 1 mg PCZ/kg body weight/day, immediate treatment
  animal mortality timing: delayed animal mortality
DENV-2 NGC-N strain; 1 mg PCZ/kg body weight/day, immediate treatment, first i.p. then oral
  overall animal survival: 50%
DENV-2 NGC-N strain; 5 mg PCZ/kg body weight, 6-h delay treatment
  death timing: delayed death
DENV-2 NGC-N strain; 5 mg PCZ/kg body weight, 6-h delay treatment, 10 days
  overall survival: 50%
DENV-2 NGC-N strain; 5 mg/kg body weight/day, immediate treatment, first i.p. then oral, 10 days
  protection against death: completely protected against death
[1]
  JEV infection (NS3 Western blot): inhibits Japanese encephalitis virus (JEV) infection
DENV-2; BHK-21 cells, MOI=0.1, 2 days
  antiviral effect against DENV-2 infection (NS3 Western blot): shows antiviral effect against DENV-2 infection
DENV-2; HEK293T, MOI=0.1, PCZ 5, 10 and 15 μM, 2 days
  antiviral activity against DENV-2 infection: exhibits antiviral activity against DENV-2 infection
DENV-2; N18 cells, MOI=0.1, 1 day
  antiviral effect against DENV-2 infection (NS3 Western blot): shows antiviral effect against DENV-2 infection

## O=C(CCCN1CCC(O)(c2ccc(Cl)cc2)CC1)c1ccc(F)cc1 [haloperidol]
DENV-2; HEK293T, MOI=0.1, 1 day
  antiviral activity against DENV-2 infection (NS3 Western blot): showed antiviral activity against DENV-2 infection

## DENV-2 PL046 strain (dengue virus serotype 2), whole virion
[2]
  fold lower cell-bound virus on D2R-knockdown cells than on controls: 6 times

## CN(C)CCCN1c2ccccc2Sc2ccc(Cl)cc21 [Chlorpromazine]
[3]
  clathrin-dependent endocytosis: inhibits clathrin-dependent endocytosis
